Source: PMC12819154, “High-throughput peptide-centric local stability assay extends protein–ligand identification to membrane proteins, tissues and bacteria” (Nature Structural & Molecular Biology, 2025)

Tests used:
Assay type in all cases: biochemical
dacB = target: T1, dacB (Escherichia coli, UniProt P24228); experiment: HT-PELSA limited trypsin proteolysis MS, single concentration; conditions: crude E. coli lysate, 10 μM ampicillin, 25 °C, 30 min
T1 construct: endogenous protein in crude E. coli lysate
T1 sequence (P24228 21-477): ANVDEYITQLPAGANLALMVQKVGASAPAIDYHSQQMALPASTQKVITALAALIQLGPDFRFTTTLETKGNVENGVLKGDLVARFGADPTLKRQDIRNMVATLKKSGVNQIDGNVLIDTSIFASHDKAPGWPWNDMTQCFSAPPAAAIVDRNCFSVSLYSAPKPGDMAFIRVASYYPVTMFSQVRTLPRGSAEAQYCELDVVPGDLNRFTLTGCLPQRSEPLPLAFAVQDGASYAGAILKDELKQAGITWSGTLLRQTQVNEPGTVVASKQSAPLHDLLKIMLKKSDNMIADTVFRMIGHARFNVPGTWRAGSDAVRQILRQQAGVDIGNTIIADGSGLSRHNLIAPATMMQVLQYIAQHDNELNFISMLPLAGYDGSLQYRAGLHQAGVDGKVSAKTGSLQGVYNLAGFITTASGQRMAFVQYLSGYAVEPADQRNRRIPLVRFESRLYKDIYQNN

pbpG = target: T2, pbpG (Escherichia coli, UniProt P0AFI5); experiment: as above; conditions: crude E. coli lysate, 10 μM ampicillin, 25 °C, 30 min
T2 construct: endogenous protein in crude E. coli lysate
T2 sequence (P0AFI5 26-310): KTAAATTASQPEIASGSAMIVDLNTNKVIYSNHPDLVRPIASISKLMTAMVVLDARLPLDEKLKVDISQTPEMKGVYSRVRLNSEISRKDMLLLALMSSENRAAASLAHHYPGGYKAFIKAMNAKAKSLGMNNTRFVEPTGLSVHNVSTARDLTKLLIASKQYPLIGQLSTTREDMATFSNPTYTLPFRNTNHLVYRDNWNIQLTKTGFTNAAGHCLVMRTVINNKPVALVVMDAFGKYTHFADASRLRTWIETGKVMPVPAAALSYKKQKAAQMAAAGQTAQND

mrcB = target: T3, mrcB (Escherichia coli, UniProt P02919); experiment: as above; conditions: crude E. coli lysate, 10 μM ampicillin, 25 °C, 30 min; C-terminal transpeptidase domain
T3 construct: endogenous membrane protein in crude E. coli lysate
T3 sequence (P02919 1-844): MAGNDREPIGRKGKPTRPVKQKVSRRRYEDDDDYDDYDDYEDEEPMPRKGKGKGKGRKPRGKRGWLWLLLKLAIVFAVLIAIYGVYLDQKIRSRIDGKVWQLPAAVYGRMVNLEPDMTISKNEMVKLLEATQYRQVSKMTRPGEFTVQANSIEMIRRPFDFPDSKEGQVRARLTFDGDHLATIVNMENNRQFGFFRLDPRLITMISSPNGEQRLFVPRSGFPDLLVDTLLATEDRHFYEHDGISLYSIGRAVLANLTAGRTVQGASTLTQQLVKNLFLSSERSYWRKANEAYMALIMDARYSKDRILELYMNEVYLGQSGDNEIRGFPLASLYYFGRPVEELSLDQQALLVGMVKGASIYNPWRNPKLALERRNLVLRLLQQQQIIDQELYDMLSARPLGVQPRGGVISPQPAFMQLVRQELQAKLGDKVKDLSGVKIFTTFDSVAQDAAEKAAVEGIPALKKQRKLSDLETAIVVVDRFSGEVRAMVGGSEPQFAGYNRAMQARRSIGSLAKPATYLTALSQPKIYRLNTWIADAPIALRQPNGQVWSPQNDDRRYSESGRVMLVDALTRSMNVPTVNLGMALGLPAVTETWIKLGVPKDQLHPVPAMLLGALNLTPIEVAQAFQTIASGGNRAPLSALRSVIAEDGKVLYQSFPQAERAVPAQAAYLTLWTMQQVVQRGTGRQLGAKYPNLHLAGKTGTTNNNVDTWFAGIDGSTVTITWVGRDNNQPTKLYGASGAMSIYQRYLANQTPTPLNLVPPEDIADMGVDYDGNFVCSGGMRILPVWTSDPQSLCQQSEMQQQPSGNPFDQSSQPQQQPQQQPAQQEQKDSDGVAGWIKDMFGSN

mrcA = target: T4, mrcA (Escherichia coli, UniProt P02918); experiment: as above; conditions: crude E. coli lysate, 10 μM ampicillin, 25 °C, 30 min; C-terminal transpeptidase domain
T4 construct: endogenous membrane protein in crude E. coli lysate
T4 sequence (P02918 1-850): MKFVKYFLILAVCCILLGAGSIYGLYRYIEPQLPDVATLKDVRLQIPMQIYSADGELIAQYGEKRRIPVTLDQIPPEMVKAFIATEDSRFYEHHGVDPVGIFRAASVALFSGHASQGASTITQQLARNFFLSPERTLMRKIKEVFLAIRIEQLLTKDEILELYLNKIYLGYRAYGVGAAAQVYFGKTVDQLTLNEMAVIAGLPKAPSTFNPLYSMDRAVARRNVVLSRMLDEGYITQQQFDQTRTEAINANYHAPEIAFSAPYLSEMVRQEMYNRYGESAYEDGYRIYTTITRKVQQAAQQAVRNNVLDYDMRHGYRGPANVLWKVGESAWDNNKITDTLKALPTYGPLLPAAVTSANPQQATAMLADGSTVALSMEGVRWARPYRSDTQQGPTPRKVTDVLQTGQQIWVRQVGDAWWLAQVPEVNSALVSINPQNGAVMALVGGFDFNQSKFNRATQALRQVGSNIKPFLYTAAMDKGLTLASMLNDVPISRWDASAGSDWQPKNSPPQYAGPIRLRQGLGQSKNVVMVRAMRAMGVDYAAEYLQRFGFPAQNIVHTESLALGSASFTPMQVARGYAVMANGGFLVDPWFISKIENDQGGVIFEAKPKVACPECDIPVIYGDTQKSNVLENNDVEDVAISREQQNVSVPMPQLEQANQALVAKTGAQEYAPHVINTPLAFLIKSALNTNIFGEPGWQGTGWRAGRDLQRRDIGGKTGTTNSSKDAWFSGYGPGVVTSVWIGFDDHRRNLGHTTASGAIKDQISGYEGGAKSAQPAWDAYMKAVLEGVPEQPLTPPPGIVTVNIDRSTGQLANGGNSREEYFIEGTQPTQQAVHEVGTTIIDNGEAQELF

ftsI = target: T5, ftsI (Escherichia coli, UniProt P0AD68); experiment: as above; conditions: crude E. coli lysate, 10 μM ampicillin, 25 °C, 30 min
T5 construct: endogenous membrane protein in crude E. coli lysate
T5 sequence (P0AD68 1-577): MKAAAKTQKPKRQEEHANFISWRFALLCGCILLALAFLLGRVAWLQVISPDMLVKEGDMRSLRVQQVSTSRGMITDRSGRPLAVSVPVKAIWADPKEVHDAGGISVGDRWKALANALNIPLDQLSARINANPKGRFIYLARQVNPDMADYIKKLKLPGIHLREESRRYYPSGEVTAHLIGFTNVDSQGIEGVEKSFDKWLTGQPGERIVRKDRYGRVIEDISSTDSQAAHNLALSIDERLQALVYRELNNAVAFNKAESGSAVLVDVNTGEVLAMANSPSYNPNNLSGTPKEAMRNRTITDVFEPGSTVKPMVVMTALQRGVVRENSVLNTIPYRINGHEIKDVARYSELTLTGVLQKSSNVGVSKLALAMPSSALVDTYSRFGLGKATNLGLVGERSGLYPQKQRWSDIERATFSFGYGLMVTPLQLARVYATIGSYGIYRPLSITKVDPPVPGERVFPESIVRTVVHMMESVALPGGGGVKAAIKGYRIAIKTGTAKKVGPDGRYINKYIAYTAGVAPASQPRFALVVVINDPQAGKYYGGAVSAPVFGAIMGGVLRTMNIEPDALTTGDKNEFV

Csn1ke = target: T6, Csn1ke (Mus musculus, UniProt Q9JMK2); experiment: HT-PELSA limited trypsin proteolysis MS, dose-response; conditions: mouse heart lysate in PBS, 25 °C, 30 min, 0.2 nM-20 μM
T6 construct: gene Csnk1e; endogenous protein in mouse heart lysate; printed Csn1ke read as Csnk1e
T6 sequence (Q9JMK2 1-416): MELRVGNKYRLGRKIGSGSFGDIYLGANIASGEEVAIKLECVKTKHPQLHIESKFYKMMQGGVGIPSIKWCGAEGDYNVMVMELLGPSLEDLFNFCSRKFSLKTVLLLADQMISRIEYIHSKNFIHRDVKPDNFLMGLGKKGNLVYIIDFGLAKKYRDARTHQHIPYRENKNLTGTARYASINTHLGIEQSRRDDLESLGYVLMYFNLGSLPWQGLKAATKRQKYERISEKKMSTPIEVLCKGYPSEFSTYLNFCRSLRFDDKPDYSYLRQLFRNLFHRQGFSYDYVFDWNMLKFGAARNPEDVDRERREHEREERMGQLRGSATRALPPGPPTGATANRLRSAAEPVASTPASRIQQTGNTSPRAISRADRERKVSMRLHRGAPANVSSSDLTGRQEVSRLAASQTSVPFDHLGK

α subunit Prkaa2 of Ampk = target: T7, α subunit Prkaa2 of Ampk (Mus musculus, UniProt Q8BRK8); experiment: as above; conditions: mouse heart lysate in PBS, 25 °C, 30 min, 0.2 nM-20 μM
T7 construct: endogenous catalytic subunit of AMPK in mouse heart lysate
T7 sequence (Q8BRK8 whole entry): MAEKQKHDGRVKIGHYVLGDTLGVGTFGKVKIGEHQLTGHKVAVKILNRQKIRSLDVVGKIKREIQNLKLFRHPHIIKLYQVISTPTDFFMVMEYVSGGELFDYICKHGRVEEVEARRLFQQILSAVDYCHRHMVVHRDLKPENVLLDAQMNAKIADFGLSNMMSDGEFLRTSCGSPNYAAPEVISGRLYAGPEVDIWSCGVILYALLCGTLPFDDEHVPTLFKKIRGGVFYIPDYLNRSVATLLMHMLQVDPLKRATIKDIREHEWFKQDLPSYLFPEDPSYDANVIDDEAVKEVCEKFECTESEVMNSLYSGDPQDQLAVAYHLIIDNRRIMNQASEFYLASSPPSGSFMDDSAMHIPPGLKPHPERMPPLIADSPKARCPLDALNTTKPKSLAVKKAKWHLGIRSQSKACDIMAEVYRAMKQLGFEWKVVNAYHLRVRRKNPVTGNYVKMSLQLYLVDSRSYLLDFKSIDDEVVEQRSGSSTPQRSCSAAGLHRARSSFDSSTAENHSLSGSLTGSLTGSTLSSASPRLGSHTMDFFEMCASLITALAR

GuaC = target: T8, GuaC (Escherichia coli, UniProt P60560); experiment: as above; conditions: desalted E. coli lysate, Mg2+ (10 mM MgCl2 added), 25 °C, 30 min; allosteric
T8 construct: endogenous full-length protein in desalted E. coli lysate
T8 sequence (P60560 1-347): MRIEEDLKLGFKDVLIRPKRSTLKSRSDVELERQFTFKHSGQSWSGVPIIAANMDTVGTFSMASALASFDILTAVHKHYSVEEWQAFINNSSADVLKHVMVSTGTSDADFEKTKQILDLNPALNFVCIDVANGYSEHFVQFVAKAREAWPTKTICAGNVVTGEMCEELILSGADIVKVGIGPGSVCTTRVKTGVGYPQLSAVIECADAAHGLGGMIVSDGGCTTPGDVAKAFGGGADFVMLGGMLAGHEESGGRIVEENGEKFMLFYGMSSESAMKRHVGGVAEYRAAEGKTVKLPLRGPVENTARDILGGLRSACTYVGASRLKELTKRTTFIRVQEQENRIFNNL

CC1(C)S[C@@H]2[C@H](NC(=O)[C@H](N)c3ccccc3)C(=O)N2[C@H]1C(=O)O [ampicillin]
HT-PELSA limited trypsin proteolysis MS, single concentration (dacB): HT-PELSA identified five known targets of ampicillin (mrcA, mrcB, ftsI, dacB and pbpG
HT-PELSA limited trypsin proteolysis MS, single concentration (pbpG): HT-PELSA identified five known targets of ampicillin (mrcA, mrcB, ftsI, dacB and pbpG
HT-PELSA limited trypsin proteolysis MS, single concentration (mrcB): HT-PELSA identified five known targets of ampicillin (mrcA, mrcB, ftsI, dacB and pbpG
HT-PELSA limited trypsin proteolysis MS, single concentration (mrcA): HT-PELSA identified five known targets of ampicillin (mrcA, mrcB, ftsI, dacB and pbpG
HT-PELSA limited trypsin proteolysis MS, single concentration (ftsI): HT-PELSA identified five known targets of ampicillin (mrcA, mrcB, ftsI, dacB and pbpG

CCN(CC)CCNC(=O)c1c(C)[nH]c(/C=C2\C(=O)Nc3ccc(F)cc32)c1C [sunitinib]
pEC50 (Csn1ke): the α subunit Prkaa2 of Ampk, Camk2g, Csn1ke and Csnk1g2
pEC50 (α subunit Prkaa2 of Ampk): the α subunit Prkaa2 of Ampk, Camk2g, Csn1ke and Csnk1g2

Nc1ncnc2c1ncn2[C@@H]1O[C@H](COP(=O)(O)OP(=O)(O)OP(=O)(O)O)[C@@H](O)[C@H]1O [ATP]
pEC50 (GuaC): Among the non-annotated ATP binders, we identify GuaC
